Data as given in patent US12208089B2, “Adjusting expression level of a gene encoding a Sirtuin protein by treating a human subject with a nitroxide” (priority 2021, dated 2025).

Tested on: SIRT2
Assay: Effects of Tempol on gene expression in cardiac tissue of mice, chip-based microarray
Assay type: in vivo
Conditions: 5 mg/g of food from 14 to 31 months after birth
Procedure: To assess the effects of Tempol on gene expression, Tempol was administered to experimental mice at a dose of 5 mg/g of food from 14 months to 31 months after birth. Mice receiving the same food without the addition of Tempol were used as a negative control. At the age of 31 months, the experimental animals were sacrificed and the hearts were surgically removed. The expression of a broad spectrum of genes in the cardiac tissue was assessed using chip-based microarray technology. Such chips are well known in the art and are widely used to assess gene expression.

SMILES: CC1(C)CC(O)CC(C)(C)N1[O] [Tempol, 4-hydroxy-2,2,6,6-tetramethylpiperidine-1-oxyl]
- Fold change (SIRT2 expression in cardiac tissue after Tempol administration) (hearts at 31 months, vs. same food without Tempol, P-value 0.00): 1.16
- SIRT2 expression in the cardiac tissue (microarray, vs. negative control): statistically significant increase in expression
